Assay results as given in PMC5079829 (Bioorganic & medicinal chemistry, 2016).

Experiments:
[1] = test system: H9/HIV-1IIIB; conditions: previously reported; cited from earlier work
[2] = test system: HIV-1 Env pseudovirus BG505-T332N; conditions: subtype A, previously published ref 18; cited from earlier work
[3] = test system: HIV-1 Env pseudovirus QD435.100M.ENV.E1; conditions: QD435.100M.ENV.E1, subtype D, NIH # 11918; previously published ref 18; cited from earlier work
[4] = test system: HIV-1 Env pseudovirus CRF02_AG clone 266; conditions: CRF02_AG clone 266, subtype A/G, NIH # 11602; previously published ref 18; cited from earlier work
[5] = test system: HIV-1 Env pseudovirus QH0692, clone 42; conditions: QH0692, clone 42, subtype B, NIH # 11018; previously published ref 18; cited from earlier work
[6] = test system: HIV-1 Env pseudovirus QG393.60M.ENV.B7; conditions: QG393.60M.ENV.B7, subtype A2/D, NIH # 11906; previously published ref 18; cited from earlier work
[7] = test system: HIV-1 Env pseudovirus QF495.23M.ENV.A1; conditions: QF495.23M.ENV.A1, subtype A, NIH # 11890; previously published ref 18; cited from earlier work
[8] = test system: HIV-1 Env pseudovirus p1058_11.B11.1550; conditions: p1058_11.B11.1550, subtype B, NIH # 11563, R5X4-tropic; previously published ref 18; cited from earlier work
[9] = test system: HIV-1 Env pseudovirus pTHRO4156 clone 18; conditions: pTHRO4156 clone 18, subtype B, NIH # 11037; previously published ref 18; cited from earlier work
[10] = test system: HIV-1 Env pseudovirus SC422661.8; conditions: SC422661.8, subtype B, NIH # 11058; previously published ref 18; cited from earlier work
[11] = test system: HIV-1 Env pseudovirus QG393.60M.ENV.A1; conditions: QG393.60M.ENV.A1, subtype A2/D, NIH # 11905; previously published ref 18; cited from earlier work
[12] = test system: HIV-1 Env pseudovirus ZM135M.PL10a; conditions: subtype C, NIH # 11315, previously published ref 18; cited from earlier work
[13] = test system: HIV-1 Env pseudovirus pCAAN5342 clone A2; conditions: pCAAN5342 clone A2, subtype B, NIH # 11038; previously published ref 18; cited from earlier work
[14] = test system: HIV-1 Env pseudovirus QG393.60M.ENV.B8; conditions: QG393.60M.ENV.B8, subtype A2/D, NIH # 11907; previously published ref 18; cited from earlier work
[15] = test system: HIV-1 Env pseudovirus QB726.70M.ENV.C4; conditions: QB726.70M.ENV.C4, subtype A, NIH # 11888; previously published ref 18; cited from earlier work
[16] = test system: panel of 51 Env-pseudotyped viruses; experiment: microbe, parasite or virus in culture; assay type: cell-based; conditions: Human immunodeficiency virus 1, read-out: IC50 range over the pseudovirus panel
[17] = test system: HIV-1 Env pseudovirus QB099.391M.ENV.C8; conditions: QB099.391M.ENV.C8, subtype C, NIH # 11909; previously published ref 18; cited from earlier work
[18] = test system: HIV-1 Env pseudovirus CAP210.2.00.E8; conditions: CAP210.2.00.E8, subtype C, NIH # 11317; previously published ref 18; cited from earlier work
[19] = test system: HIV-1 Env pseudovirus AC10.0, clone 29; conditions: AC10.0, clone 29, subtype B, NIH # 11024; previously published ref 18; cited from earlier work
[20] = test system: HIV-1 Env pseudovirus ZM214M.PL15; conditions: ZM214M.PL15, subtype C, NIH # 11310; previously published ref 18; cited from earlier work
[21] = test system: HIV-1 Env pseudovirus BF535.W6M.ENV.A1; conditions: BF535.W6M.ENV.A1, subtype D/A, NIH # 11517 (infant); previously published ref 18; cited from earlier work
[22] = test system: HIV-1 Env pseudovirus CRF02_AG clone 278; conditions: CRF02_AG clone 278, subtype A/G, NIH # 11605; previously published ref 18; cited from earlier work
[23] = test system: HIV-1 Env pseudovirus QF495.23M.ENV.B2; conditions: QF495.23M.ENV.B2, subtype A, NIH # 11892; previously published ref 18; cited from earlier work

**Q.** With CC1(C)CC(NC(=O)C(=O)Nc2ccc(Cl)cc2)CC(C)(C)N1 [NBD-556] as the compound, how does the “inhibition of cell-to-cell HIV-1 transmission” value [1] read?
**A.** failed to do so

**Q.** Which results are given for Cc1nc([C@H](NC(=O)c2ccc(-c3ccc(Cl)cc3)[nH]2)[C@@H]2CCCCN2)sc1CO [NBD-11021A2]?
**A.** IC50 [2]: 1 ± 0.1 µM; IC50 [3]: 3.7 ± 0.1 µM; IC50 [4]: 1 ± 0.2 µM; IC50 [5]: 0.52 ± 0.1 µM; IC50 [6]: 0.8 ± 0.3 µM; IC50 [7]: 1.3 ± 0.4 µM; IC50 [8]: 1.1 ± 0.8 µM; IC50 [9]: 1 ± 0.2 µM; IC50 [10]: 0.33 ± 0.01 µM; IC50 [11]: 0.41 ± 0.2 µM; IC50 [12]: 2.7 ± 1.2 µM; IC50 [13]: 0.6 ± 0.07 µM; IC50 [14]: 0.48 ± 0.2 µM; IC50 [15]: 1.3 ± 0.3 µM; IC50 [16]: 0.32 to 4.4 µM; IC50 [17]: 1.8 ± 0.5 µM; IC50 [18]: 2.8 ± 0.7 µM; IC50 [19]: 0.32 ± 0.01 µM; IC50 [20]: 2.7 ± 0.2 µM; IC50 [21]: 2.8 ± 0.6 µM; IC50 [22]: 1.3 ± 0.5 µM; IC50 [23]: 0.6 ± 0.4 µM
